# Data reported in patent publication US20240050429A1, “PAZOPANIB PHARMACEUTICAL COMPOSITION, INJECTION AND PREPARATION METHOD AND USE THEREOF” (Qx Therapeutics, Inc., priority 2022, published 2024).
# Counter-ions that a name gives are not always drawn.
# Tested on: hydrochloric acid-induced acute lung injury in mice
# Test: Hydrochloric acid-induced acute lung injury, lung permeability, tail intravenous injection of Example 2
# Assay type: in vivo
# Parameters: dose or concentration left out as unconfirmed
# Procedure: 1. In this example, […], respectively, which corresponded to the freshly prepared pharmaceutical compositions in Example 2 (being freshly formulated referred to within 1 day after the formulation was completed), and the therapeutic effect of these doses on hydrochloric acid-induced acute lung injury in mice were determined, wherein the body weight of each mouse was 20 g.
# 8 to 10 weeks old C57/BL male and female mice were infused with 0.05 M HCl at 2.5 μl/bwg through the trachea. 4 hours later, 100 μl of FITC-labeled albumin (10 mg/ml) was injected through the posterior segment of eyeball. Finally, the mice were euthanized and lung tissue samples were collected 6 hours after the induction of injury to measure changes in pulmonary permeability and lung histopathology. […] Meanwhile, plasma was collected and bronchoalveolar lavage was performed after mice were euthanized.
structure (smiles),measurement,value
"Cc1ccc(Nc2nccc(N(C)c3ccc4c(C)n(C)nc4c3)n2)cc1S(N)(=O)=O [Comparative Example 1, pazopanib hydrochloride]",Percentage (%) of reduced lung permeability,45 to 70%
